Experimental data published in ChEMBL document CHEMBL1141117, “Unambiguous synthesis and prophylactic antimalarial activities of imidazolidinedione derivatives” (J Med Chem, 2005).

These molecules were tested on Plasmodium yoelii (assay: Prophylactic activity in infected mouse at 5 mg/kg peroral administration, expressed as no of organisms survived; Total organisms= 5). Settings: route oral.

`CCCCCCOC(=O)N/C(=N/C(C)C)NC1=NC(=O)C(=O)N1c1ccc(Cl)c(Cl)c1` was tested. Which Activity did it give?
Its Activity is 2.

Which Activity does the source give for `CC(C)/N=C(/NC(=O)OC(C)(C)C)NC1=NC(=O)C(=O)N1c1ccc(Cl)c(Cl)c1` here?
Its Activity is 4.

With `CC(C)COC(=O)N/C(=N/C(C)C)NC1=NC(=O)C(=O)N1c1ccc(Cl)c(Cl)c1` as the molecule, how does the Activity read?
Its Activity is 5.

The molecules below were run on Plasmodium yoelii (assay: Prophylactic activity in infected mouse at 10 mg/kg peroral administration, expressed as no of organisms survived; Total organisms= 5). Settings: route oral.

Which Activity does the source give for `CCO[C@H]1O[C@@H]2O[C@@]3(C)CC[C@H]4[C@H](C)CC[C@@H]([C@H]1C)[C@@]24OO3` [ARTEMOTIL] here?
Its Activity is 0.

With `CCCCCCOC(=O)N/C(=N/C(C)C)NC1=NC(=O)C(=O)N1c1ccc(Cl)c(Cl)c1` as the molecule, how does the Activity read?
Its Activity is 2.

With `CC(C)COC(=O)/N=C(\NC1=NC(=O)C(=O)N1C(C)C)Nc1ccc(Cl)c(Cl)c1` as the molecule, how does the Activity read?
Its Activity is 0.

For `CCCCCCOC(=O)/N=C(\NC1=NC(=O)C(=O)N1C(C)C)Nc1ccc(Cl)c(Cl)c1`, which Activity is on record?
The Activity was 0.

How did the Activity turn out when `CC(C)COC(=O)N/C(=N/C(C)C)NC1=NC(=O)C(=O)N1c1ccc(Cl)c(Cl)c1` was run?
Its Activity is 5.

For `CC(C)N1C(=O)C(=O)N=C1N/C(=N\C(=O)OCCOCc1ccccc1)Nc1ccc(Cl)c(Cl)c1`, which Activity is on record?
Its Activity is 0.

Which Activity does the source give for `C=CCCOC(=O)/N=C(\NC1=NC(=O)C(=O)N1C(C)C)Nc1ccc(Cl)c(Cl)c1` here?
Its Activity is 0.

How did the Activity turn out when `COc1cc(NC(C)CCCN)c2ncccc2c1` (stereo not drawn) [PRIMAQUINE] was run?
The Activity was 0.

For `Cc1oc(=O)oc1COC(=O)/N=C(\NC1=NC(=O)C(=O)N1C(C)C)Nc1ccc(Cl)c(Cl)c1`, which Activity is on record?
Its Activity is 2.

Each molecule was assayed on Plasmodium yoelii (assay: Prophylactic activity in infected mouse at 20 mg/kg peroral administration, expressed as no of organisms survived; Total organisms= 5). Settings: route oral.

How did the Activity turn out when `CCCCCCOC(=O)N/C(=N/C(C)C)NC1=NC(=O)C(=O)N1c1ccc(Cl)c(Cl)c1` was run?
The Activity was 4.

Each molecule was assayed on Plasmodium yoelii (assay: Prophylactic activity in infected mouse at 40 mg/kg peroral administration, expressed as no of organisms survived; Total organisms= 5). Settings: route oral.

For `CCO[C@H]1O[C@@H]2O[C@@]3(C)CC[C@H]4[C@H](C)CC[C@@H]([C@H]1C)[C@@]24OO3` [ARTEMOTIL], which Activity is on record?
The Activity was 0.

For `CCCCCCOC(=O)N/C(=N/C(C)C)NC1=NC(=O)C(=O)N1c1ccc(Cl)c(Cl)c1`, which Activity is on record?
Its Activity is 3.

`CC(C)/N=C(/NC(=O)OC(C)(C)C)NC1=NC(=O)C(=O)N1c1ccc(Cl)c(Cl)c1` was tested. Which Activity did it give?
The Activity was 4.

How did the Activity turn out when `CC(C)COC(=O)/N=C(\NC1=NC(=O)C(=O)N1C(C)C)Nc1ccc(Cl)c(Cl)c1` was run?
Its Activity is 2.

How did the Activity turn out when `CCCCCCOC(=O)/N=C(\NC1=NC(=O)C(=O)N1C(C)C)Nc1ccc(Cl)c(Cl)c1` was run?
The Activity was 2.

How did the Activity turn out when `CC(C)COC(=O)N/C(=N/C(C)C)NC1=NC(=O)C(=O)N1c1ccc(Cl)c(Cl)c1` was run?
Its Activity is 5.

How did the Activity turn out when `CC(C)N1C(=O)C(=O)N=C1N/C(=N\C(=O)OCCOCc1ccccc1)Nc1ccc(Cl)c(Cl)c1` was run?
Its Activity is 0.

Which Activity does the source give for `C=CCCOC(=O)/N=C(\NC1=NC(=O)C(=O)N1C(C)C)Nc1ccc(Cl)c(Cl)c1` here?
Its Activity is 0.

For `COc1cc(NC(C)CCCN)c2ncccc2c1` (stereo not drawn) [PRIMAQUINE], which Activity is on record?
The Activity was 2.

Which Activity does the source give for `Cc1oc(=O)oc1COC(=O)/N=C(\NC1=NC(=O)C(=O)N1C(C)C)Nc1ccc(Cl)c(Cl)c1` here?
The Activity was 2.

These molecules were tested on Plasmodium yoelii (assay: Prophylactic activity in infected mouse at 80 mg/kg peroral administration, expressed as no of organisms survived; Total organisms= 5). Settings: route oral.

For `CCCCCCOC(=O)N/C(=N/C(C)C)NC1=NC(=O)C(=O)N1c1ccc(Cl)c(Cl)c1`, which Activity is on record?
The Activity was 5.

These molecules were tested on Plasmodium yoelii (assay: Prophylactic activity in infected mouse at 160 mg/kg peroral administration, expressed as no of organisms survived; Total organisms= 5). Settings: route oral.

`CCO[C@H]1O[C@@H]2O[C@@]3(C)CC[C@H]4[C@H](C)CC[C@@H]([C@H]1C)[C@@]24OO3` [ARTEMOTIL] was tested. Which Activity did it give?
The Activity was 0.

With `CC(C)/N=C(/NC(=O)OC(C)(C)C)NC1=NC(=O)C(=O)N1c1ccc(Cl)c(Cl)c1` as the molecule, how does the Activity read?
The Activity was 5.

For `CC(C)COC(=O)/N=C(\NC1=NC(=O)C(=O)N1C(C)C)Nc1ccc(Cl)c(Cl)c1`, which Activity is on record?
The Activity was 5.

How did the Activity turn out when `CCCCCCOC(=O)/N=C(\NC1=NC(=O)C(=O)N1C(C)C)Nc1ccc(Cl)c(Cl)c1` was run?
The Activity was 1.

How did the Activity turn out when `CC(C)COC(=O)N/C(=N/C(C)C)NC1=NC(=O)C(=O)N1c1ccc(Cl)c(Cl)c1` was run?
Its Activity is 5.

With `CC(C)N1C(=O)C(=O)N=C1N/C(=N\C(=O)OCCOCc1ccccc1)Nc1ccc(Cl)c(Cl)c1` as the molecule, how does the Activity read?
Its Activity is 1.

With `C=CCCOC(=O)/N=C(\NC1=NC(=O)C(=O)N1C(C)C)Nc1ccc(Cl)c(Cl)c1` as the molecule, how does the Activity read?
The Activity was 1.

For `COc1cc(NC(C)CCCN)c2ncccc2c1` (stereo not drawn) [PRIMAQUINE], which Activity is on record?
The Activity was 5.

`Cc1oc(=O)oc1COC(=O)/N=C(\NC1=NC(=O)C(=O)N1C(C)C)Nc1ccc(Cl)c(Cl)c1` was tested. Which Activity did it give?
Its Activity is 3.

These molecules were tested on Plasmodium yoelii (assay: Prophylactic activity in infected mouse at 2.5 mg/kg peroral administration, expressed as no of organisms survived; Total organisms= 5). Settings: route oral.

How did the Activity turn out when `CC(C)/N=C(/NC(=O)OC(C)(C)C)NC1=NC(=O)C(=O)N1c1ccc(Cl)c(Cl)c1` was run?
Its Activity is 2.

`CC(C)COC(=O)N/C(=N/C(C)C)NC1=NC(=O)C(=O)N1c1ccc(Cl)c(Cl)c1` was tested. Which Activity did it give?
Its Activity is 1.

Which Activity does the source give for `Cc1oc(=O)oc1COC(=O)/N=C(\NC1=NC(=O)C(=O)N1C(C)C)Nc1ccc(Cl)c(Cl)c1` here?
The Activity was 0.

What follows are molecules tested on Plasmodium yoelii (assay: Prophylactic activity in infected mouse at 1.23 mg/kg peroral administration, expressed as no of organisms survived; Total organisms= 5). Settings: route oral.

With `CC(C)COC(=O)N/C(=N/C(C)C)NC1=NC(=O)C(=O)N1c1ccc(Cl)c(Cl)c1` as the molecule, how does the Activity read?
The Activity was 0.

Each molecule was assayed on Plasmodium yoelii (assay: Prophylactic activity in infected mouse at 1.25 mg/kg peroral administration, expressed as no of organisms survived; Total organisms= 5). Settings: route oral.

For `CC(C)/N=C(/NC(=O)OC(C)(C)C)NC1=NC(=O)C(=O)N1c1ccc(Cl)c(Cl)c1`, which Activity is on record?
Its Activity is 2.
